Data reported in ChEMBL document CHEMBL1201862, “PubChem BioAssay data set” (2004).
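These data come from cells grown in 96-well plates and exposed to compound for 48 hours at five concentrations. At the GI50, growth is halved.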 The source made the active and inactive calls. No stated cut-off is given here; in the data, active = GI50 up to about 1.1 µM and inactive = higher.

Tests used:
Test in all cases: NCI tumour cell line growth inhibition, 48 h
MCF7 = system: MCF7
RPMI-8226 = system: RPMI-8226
UACC-257 = system: UACC-257
U-251 = system: U-251
NCI-H460 = system: NCI-H460
OVCAR-5 = system: OVCAR-5
SF-295 = system: SF-295
BT-549 = system: BT-549
PC-3 = system: PC-3
RXF 393 = system: RXF 393
M19-MEL = system: M19-MEL
NCI-H23 = system: NCI-H23
ACHN = system: ACHN
DLD-1 = system: DLD-1
SW-620 = system: SW-620
SK-MEL-2 = system: SK-MEL-2
TK-10 = system: TK-10
HCT-116 = system: HCT-116
MDA-MB-231 = system: MDA-MB-231
SF-539 = system: SF-539
MDA-N = system: MDA-N
HOP-92 = system: HOP-92
KM12 = system: KM12
SK-OV-3 = system: SK-OV-3
OVCAR-4 = system: OVCAR-4
Hs-578T = system: Hs-578T
SK-MEL-5 = system: SK-MEL-5
NCI-H226 = system: NCI-H226
HL-60 = system: HL-60
T47D = system: T47D
DU-145 = system: DU-145
786-0 = system: 786-0
HCC 2998 = system: HCC 2998
SNB-19 = system: SNB-19
UO-31 = system: UO-31
M14 = system: M14
KM-20L2 = system: KM-20L2
SF-268 = system: SF-268
IGROV-1 = system: IGROV-1
OVCAR-3 = system: OVCAR-3
SNB-75 = system: SNB-75
DMS-114 = system: DMS-114
SK-MEL-28 = system: SK-MEL-28
XF498 = system: XF498
SN12C = system: SN12C
UACC-62 = system: UACC-62
K562 = system: K562
MDA-MB-435 = system: MDA-MB-435
HOP-18 = system: HOP-18
LOX IMVI = system: LOX IMVI
COLO 205 = system: COLO 205
CCRF-CEM = system: CCRF-CEM
MOLT-4 = system: MOLT-4
NCI-H522 = system: NCI-H522
EKVX = system: EKVX
HOP-62 = system: HOP-62
Malme-3M = system: Malme-3M
HCT-15 = system: HCT-15
OVCAR-8 = system: OVCAR-8
NCI/ADR-RES = system: NCI/ADR-RES
DMS-273 = system: DMS-273
A498 = system: A498
HT-29 = system: HT-29
LXFL 529 = system: LXFL 529
A549 = system: A549

CN(C)CCN1C(=O)c2cccc3cc(N)cc(c23)C1=O [AMONAFIDE]
GI50 (MCF7): 1.87 µM (inactive)
GI50 (RPMI-8226): 2.49 µM (inactive)
GI50 (UACC-257): 4.36 µM (inactive)
GI50 (U-251): 3.64 µM (inactive)
GI50 (NCI-H460): 0.767 µM (active)
GI50 (OVCAR-5): 4.83 µM (inactive)
GI50 (SF-295): 3.46 µM (inactive)
GI50 (BT-549): 4.01 µM (inactive)
GI50 (PC-3): 2.01 µM (inactive)
GI50 (RXF 393): 4.06 µM (inactive)
GI50 (M19-MEL): 4.19 µM (inactive)
GI50 (NCI-H23): 3.91 µM (inactive)
GI50 (ACHN): 0.718 µM (active)
GI50 (DLD-1): 5.38 µM (inactive)
GI50 (SW-620): 1.65 µM (inactive)
GI50 (SK-MEL-2): 2.46 µM (inactive)
GI50 (TK-10): 3.89 µM (inactive)
GI50 (HCT-116): 1.87 µM (inactive)
GI50 (MDA-MB-231): 2.46 µM (inactive)
GI50 (SF-539): 3.71 µM (inactive)
GI50 (MDA-N): 2.9 µM (inactive)
GI50 (HOP-92): 3.23 µM (inactive)
GI50 (KM12): 4.37 µM (inactive)
GI50 (SK-OV-3): 4.42 µM (inactive)
GI50 (OVCAR-4): 4.71 µM (inactive)
GI50 (Hs-578T): 6.21 µM (inactive)
GI50 (SK-MEL-5): 2.9 µM (inactive)
GI50 (NCI-H226): 2.4 µM (inactive)
GI50 (HL-60): 2.24 µM (inactive)
GI50 (T47D): 4.5 µM (inactive)
GI50 (DU-145): 2.94 µM (inactive)
GI50 (786-0): 2.2 µM (inactive)
GI50 (HCC 2998): 2.48 µM (inactive)
GI50 (SNB-19): 4.21 µM (inactive)
GI50 (UO-31): 4.18 µM (inactive)
GI50 (M14): 3.72 µM (inactive)
GI50 (KM-20L2): 3.99 µM (inactive)
GI50 (SF-268): 5.46 µM (inactive)
GI50 (IGROV-1): 3.49 µM (inactive)
GI50 (OVCAR-3): 5.81 µM (inactive)
GI50 (SNB-75): 5.33 µM (inactive)
GI50 (DMS-114): 4.21 µM (inactive)
GI50 (SK-MEL-28): 6.84 µM (inactive)
GI50 (XF498): 0.946 µM (active)
GI50 (SN12C): 3.19 µM (inactive)
GI50 (UACC-62): 3.38 µM (inactive)
GI50 (K562): 3.23 µM (inactive)
GI50 (MDA-MB-435): 3.37 µM (inactive)
GI50 (HOP-18): 5.2 µM (inactive)
GI50 (LOX IMVI): 2.46 µM (inactive)
GI50 (COLO 205): 1.55 µM (inactive)
GI50 (CCRF-CEM): 1.91 µM (inactive)
GI50 (MOLT-4): 0.804 µM (active)
GI50 (NCI-H522): 3.71 µM (inactive)
GI50 (EKVX): 5.94 µM (inactive)
GI50 (HOP-62): 2.43 µM (inactive)
GI50 (Malme-3M): 3.31 µM (inactive)
GI50 (HCT-15): 2.6 µM
GI50 (OVCAR-8): 2.14 µM (inactive)
GI50 (NCI/ADR-RES): 3.33 µM (inactive)
GI50 (DMS-273): 2.07 µM (inactive)
GI50 (A498): 3.58 µM (inactive)
GI50 (HT-29): 3.3 µM (inactive)

COc1ccc(/C=C/C(=O)c2c(-c3ccccc3)nn(C)c(=O)c2N2CCCC2)cc1
GI50 (RPMI-8226): > 100 µM (inactive)
GI50 (U-251): > 100 µM (inactive)
GI50 (NCI-H460): > 100 µM (inactive)
GI50 (LXFL 529): > 100 µM (inactive)
GI50 (SF-295): 70.5 µM (inactive)
GI50 (A549): > 100 µM (inactive)
GI50 (M19-MEL): > 100 µM (inactive)
GI50 (ACHN): > 100 µM (inactive)
GI50 (DLD-1): > 100 µM (inactive)
GI50 (SW-620): > 100 µM (inactive)
GI50 (TK-10): > 100 µM (inactive)
GI50 (HCT-116): 87.9 µM (inactive)
GI50 (SF-539): 69.2 µM (inactive)
GI50 (HOP-92): 3.69 µM (inactive)
GI50 (SK-OV-3): > 100 µM (inactive)
GI50 (SK-MEL-5): > 100 µM (inactive)
GI50 (HL-60): 20.9 µM (inactive)
GI50 (786-0): 82 µM (inactive)
GI50 (UO-31): > 100 µM (inactive)
GI50 (M14): > 100 µM (inactive)
GI50 (KM-20L2): > 100 µM (inactive)
GI50 (SF-268): 87.3 µM (inactive)
GI50 (IGROV-1): > 100 µM (inactive)
GI50 (DMS-114): > 100 µM (inactive)
GI50 (SK-MEL-28): > 100 µM (inactive)
GI50 (XF498): > 100 µM (inactive)
GI50 (SN12C): > 100 µM (inactive)
GI50 (UACC-62): > 100 µM (inactive)
GI50 (K562): 57.3 µM (inactive)
GI50 (HOP-18): > 100 µM (inactive)
GI50 (LOX IMVI): > 100 µM (inactive)
GI50 (COLO 205): > 100 µM (inactive)
GI50 (CCRF-CEM): > 100 µM (inactive)
GI50 (MOLT-4): 36.9 µM (inactive)
GI50 (EKVX): > 100 µM (inactive)
GI50 (HCT-15): > 100 µM
GI50 (OVCAR-8): > 100 µM (inactive)
GI50 (DMS-273): > 100 µM (inactive)
GI50 (A498): > 100 µM (inactive)
GI50 (HT-29): > 100 µM (inactive)
